Measurements from patent US20250049806A1, “PHARMACEUTICAL COMPOSITION FOR PROVIDING TREATMENT FOR OR PREVENTING ALPORT SYNDROME” (UBE Corporation, priority 2021, published 2025).

assay: Transcellular transport test using Caco2 cell; assay type: in vitro ADME; details: human, Caco-2, apical-to-basolateral (A-to-B), pH=7.4, 10 µM compound
Description: Caco2 cells (purchased from ATCC) were cultured in DMEM medium (Thermo Fisher Scientific, Inc., 11965) containing 10% FBS (Thermo Fisher Scientific, Inc., 10082) and 1% penicillin/streptomycin/amphotericin B (Thermo Fisher Scientific, Inc., 15240). A transcellular transport test was carried out in accordance with MultiScreen Caco2 Drug Transport Assembly in a 96-well system (Application Note AN1727EN, MultiScreen Caco-2 Assay System, Merck) by partially modifying it. The Caco2 cells were inoculated at a cell density of 4×10^4 cells/well onto a micropore polycarbonate insert of a 96-well plate (Merck, Millcell-96 culture insert plate 0.4 μm pore size, well membrane area=0.11 cm^2, PSHT004S5) and cultured for 20 to 22 days, and the resulting monolayer was used in the transcellular transport test. The medium of the inoculated cells was replaced with a fresh one every 3 to 4 days.
Apical-to-basolateral (A-to-B) transport in the Caco2 cell monolayer membrane was performed by using HBSS (Thermo Fisher Scientific, Inc., 14025) medium (pH=7.4) containing 20 mM HEPES (Thermo Fisher Scientific, Inc., 15630), and adding HEPES-containing HBSS medium containing 10 µM compound (a 10 mM solution of the compound in DMSO was added at a 1000-fold dilution; final DMSO concentration: 0.1%) at 75 μL/well to the apical side and HEPES-containing HBSS medium supplemented with no compound at 250 μL/well to the basolateral side, followed by culture at 37° C. for 90 minutes. After culture, a 100 μL aliquot was collected from the basolateral side, and the concentration of a permeated compound was measured by LC-MS/MS under measurement conditions mentioned later. Papp (apparent permeability; cm/sec) was calculated from the determined concentration. Papp was determined according to the expression given below by calculating the slope (dA/dt; nmol/sec) of a straight line drawn between two points 0 minutes and zero amount of the compound in a graph plotted with an assay time (90 min) on the abscissa against the amount of the compound in the solution on the permeated side on the ordinate. As for an assay concentration, the concentration in the compound in the HEPES-containing HBSS medium containing the added compound was measured by UV-HPLC under measurement conditions mentioned later.
C0: assay concentration, S: plate membrane area=0.11 cm^2
• LC: LC20 or LC30 HPLC system manufactured by Shimadzu Corp. • Column: Phenomenex Kinetex C18 (50 mm×2.1 mm, 2.6 μm) • Column temperature: 40° C. • Flow rate: 0.3 mL/min • Mobile phase A: 0.1% aqueous formic acid solution • Mobile phase B: 0.1% formic acid, 50% acetonitrile/methanol mixed solution • Gradient: 0-2 min; A/B=90/10 to 10/90, 2-3 min; A/B=10/90, 3-3.01 min; A/B=10/90 to 90/10 • MS: Q-Trap3200 manufactured by AB Sciex Pte. Ltd. • Ionization: ESI • Mode: Positive
• LC: LC20 or LC30 HPLC system manufactured by Shimadzu Corp. • Column: Phenomenex Kinetex C18 (100 mm×2.1 mm, 2.6 μm) • Column temperature: 40° C. • Flow rate: 0.25 mL/min • Mobile phase A: 0.1% aqueous formic acid solution • Mobile phase B: 0.1% formic acid, 50% acetonitrile/methanol mixed solution • Gradient: 0-3 min; A/B=90/10, 3-11 min; A/B=90/10 to 5/95, 11-15 min; A/B=5/95, 15-15.1 min; A/B=5/95 to 90/10 • UV detector: photodiode array detector
A: Papp>1×10^−6 (cm/sec), B: 1×10^−6 (cm/sec)≥Papp>5×10^−7 (cm/sec), C: 5×10^−7 (cm/sec)≥Papp>1×10^−7 (cm/sec), or D: Papp≤1×10^−7 (cm/sec).

SMILES	Papp A→B at 90 min, 10 µM [×10⁻⁶ cm/s]
O=C(O)C[C@H](NC(=O)CNC(=O)c1cc(NC2=NCC(F)CN2)c2cn[nH]c2c1)c1cccc(OC2CC2)c1 (stereo partly drawn) [40-(b), (3S)-3-(3-cyclopropoxyphenyl)-3-(2-(4-((5-fluoro-1,4,5,6-tetrahydropyrimidin-2-yl)amino)-1H-indazole-6-carboxamido)acetamido)propanoic acid]	> 1
O=C(O)C[C@H](NC(=O)CNC(=O)c1cc(NC2=NCC(F)CN2)c2cn[nH]c2c1)c1cccc(Br)c1 (stereo partly drawn) [42-(b), (3S)-3-(3-bromophenyl)-3-(2-(4-((5-fluoro-1,4,5,6-tetrahydropyrimidin-2-yl)amino)-1H-indazole-6-carboxamido)acetamido)propanoic acid]	> 1
Cc1cc(C)n(-c2cccc([C@H](CC(=O)O)NC(=O)CNC(=O)c3cc(NC4=NCC(F)CN4)c4cn[nH]c4c3)c2)n1 (stereo partly drawn) [44-(b), (3S)-3-(3-(3,5-dimethyl-1H-pyrazol-1-yl)phenyl)-3-(2-(4-((5-fluoro-1,4,5,6-tetrahydropyrimidin-2-yl)amino)-1H-indazole-6-carboxamido)acetamido)propanoic acid]	0.5 to 1
O=C(O)C[C@H](NC(=O)CNC(=O)c1cc(NC2=NCC(F)CN2)c2cn[nH]c2c1)c1cccc(N2CCOCC2)c1 (stereo partly drawn) [45-(b), (3S)-3-(2-(4-((5-fluoro-1,4,5,6-tetrahydropyrimidin-2-yl)amino)-1H-indazole-6-carboxamido)acetamido)-3-(3-morpholinophenyl)propanoic acid]	0.5 to 1
O=C(O)C[C@H](NC(=O)CNC(=O)c1cc(NC2=NCC(F)CN2)c2cn[nH]c2c1)c1ccc(OC(F)F)cc1 (stereo partly drawn) [46-(b), (3S)-3-(4-(difluoromethoxy)phenyl)-3-(2-(4-((5-fluoro-1,4,5,6-tetrahydropyrimidin-2-yl)amino)-1H-indazole-6-carboxamido)acetamido)propanoic acid]	> 1
O=C(O)C[C@H](NC(=O)CNC(=O)c1cc(NC2=NCC(F)CN2)c2c(F)n[nH]c2c1)c1cc(Cl)cc(C(F)(F)F)c1 (stereo partly drawn) [48-(b), (3S)-3-(3-chloro-5-(trifluoromethyl)phenyl)-3-(2-(3-fluoro-4-((5-fluoro-1,4,5,6-tetrahydropyrimidin-2-yl)amino)-1H-indazole-6-carboxamido)acetamido)propanoic acid]	> 1

Second part, the molecule after the results:

Papp A→B at 90 min, 10 µM [×10⁻⁶ cm/s]	SMILES
> 1	O=C(O)C[C@H](NC(=O)CNC(=O)c1cc(NC2=NCC(F)CN2)c2cn[nH]c2c1)c1cccc(Cl)c1 (stereo partly drawn) [41-(b), (3S)-3-(3-chlorophenyl)-3-(2-(4-((5-fluoro-1,4,5,6-tetrahydropyrimidin-2-yl)amino)-1H-indazole-6-carboxamido)acetamido)propanoic acid]
> 1	O=C(O)C[C@H](NC(=O)CNC(=O)c1cc(NC2=NCC(F)CN2)c2cn[nH]c2c1)c1cccc(-n2cccn2)c1 (stereo partly drawn) [43-(b), (3S)-3-(3-(1H-pyrazol-1-yl)phenyl)-3-(2-(4-((5-fluoro-1,4,5,6-tetrahydropyrimidin-2-yl)amino)-1H-indazole-6-carboxamido)acetamido)propanoic acid]
> 1	O=C(O)C[C@H](NC(=O)CNC(=O)c1cc(NC2=NCC(F)CN2)c2cn[nH]c2c1)c1ccc(C(F)(F)F)cc1 (stereo partly drawn) [47-(b), (3S)-3-(2-(4-((5-fluoro-1,4,5,6-tetrahydropyrimidin-2-yl)amino)-1H-indazole-6-carboxamido)acetamido)-3-(4-(trifluoromethyl)phenyl)propanoic acid]
0.5 to 1	O=C(O)C[C@H](NC(=O)CNC(=O)c1cc(NC2=NCC(F)CN2)c2c(Cl)n[nH]c2c1)c1cc(Cl)cc(C(F)(F)F)c1 (stereo partly drawn) [49-(b), (3S)-3-(2-(3-chloro-4-((5-fluoro-1,4,5,6-tetrahydropyrimidin-2-yl)amino)-1H-indazole-6-carboxamido)acetamido)-3-(3-chloro-5-(trifluoromethyl)phenyl)propanoic acid]
